Source: publication PMC11480411, “Mucosal sugars delineate pyrazine vs pyrazinone autoinducer signaling in Klebsiella oxytoca” (Nature Communications, 2024)
Where “and” joins values, the source holds several entries; their conditions need not be identical. Equal entries are not always repeated.

How the values were obtained:
[1] = molecular target: T1, HRH2 (Homo sapiens, UniProt P25021); assay: PRESTO-Tango GPCR screen and dose-response; assay type: cell-based; settings: for HRH2 dose-response raw reporter signal (Fig. 5b source data): replicate wells
T1 construct: expressed in transfected cells; host or cells: HTLA cells (HEK293 line stably expressing β-arrestin-TEV and tTA-Luciferase)
T1 sequence (P25021 whole entry): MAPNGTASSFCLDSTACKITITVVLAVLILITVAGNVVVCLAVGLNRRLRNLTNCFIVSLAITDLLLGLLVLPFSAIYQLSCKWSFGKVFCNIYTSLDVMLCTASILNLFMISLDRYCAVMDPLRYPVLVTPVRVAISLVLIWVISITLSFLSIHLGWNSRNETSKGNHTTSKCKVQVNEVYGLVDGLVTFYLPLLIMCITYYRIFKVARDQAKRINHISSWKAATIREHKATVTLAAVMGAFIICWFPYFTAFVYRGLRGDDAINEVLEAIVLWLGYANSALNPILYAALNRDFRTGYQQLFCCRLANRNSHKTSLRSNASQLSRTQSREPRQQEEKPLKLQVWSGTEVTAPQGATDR
Method: (§1) The PRESTO-Tango analyses were performed as previously published. Briefly, HTLA cells, a HEK293 cell line that stably expresses β-arrestin-TEV and tTA-Luciferase (a kind gift from Gilad Barnea, Brown University), were plated in 96-well tissue culture plates (Eppendorf) in DMEM containing 10% FBS and 1% Penicillin/Streptomycin. One day after plating (after reaching approximately 90% confluence), 200 ng per well GPCR-Tango plasmids[37] in 20 μL DMEM were individually mixed with 400 ng polyethylenimine (Polysciences) in an equal volume of DMEM and incubated for 20 min at room temperature before adding the transfection mixture to the HTLA cells. 16-24 h after transfection, medium was replaced with 180 μL fresh DMEM containing 1% Penicillin/Streptomycin and 10 mM HEPES and 20 μL of 3 or 3-Homo to reach a final concentration of 100 μM. Supernatants were aspirated 20 h after stimulation and 50 μl per well of Bright-Glo solution (Promega) diluted 20-fold with PBS containing 20 mM HEPES was added into each well. After 15 min incubation at room temperature, luminescence was quantified using a Spectramax i3x microplate reader (Molecular Devices). Activation fold for each sample was calculated by dividing relative luminescence units (RLU) for each condition by RLUs from PBS control. Dose response curves of each chemical were performed in a similar way with varying the ligand concentration from 10^−4 M to 10^−15 M.

[2] = molecular target: T2, HRH1 (Homo sapiens, UniProt P35367); assay: PRESTO-Tango GPCR screen and dose-response; assay type: cell-based; settings: for HRH1 dose-response raw reporter signal (Fig. 5b source data): replicate wells
T2 construct: expressed in transfected cells; host or cells: HTLA cells (HEK293 line stably expressing β-arrestin-TEV and tTA-Luciferase)
T2 sequence (P35367 whole entry): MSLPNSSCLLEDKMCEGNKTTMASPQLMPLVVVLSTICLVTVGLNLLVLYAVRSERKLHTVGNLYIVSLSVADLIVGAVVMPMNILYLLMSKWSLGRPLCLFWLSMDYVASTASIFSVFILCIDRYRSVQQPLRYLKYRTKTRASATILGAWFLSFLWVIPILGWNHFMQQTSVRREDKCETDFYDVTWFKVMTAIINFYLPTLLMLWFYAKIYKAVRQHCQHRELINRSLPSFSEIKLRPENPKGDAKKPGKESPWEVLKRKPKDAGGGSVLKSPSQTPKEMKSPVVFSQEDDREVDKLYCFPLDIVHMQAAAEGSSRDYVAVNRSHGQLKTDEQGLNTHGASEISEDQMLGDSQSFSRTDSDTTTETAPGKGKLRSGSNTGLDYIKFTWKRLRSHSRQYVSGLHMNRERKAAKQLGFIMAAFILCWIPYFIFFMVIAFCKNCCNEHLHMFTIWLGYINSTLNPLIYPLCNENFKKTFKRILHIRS
Method: as §1

[3] = molecular target: T3, histamine receptor H4 (HRH4) (Homo sapiens, UniProt Q9H3N8); assay: PRESTO-Tango GPCR screen and dose-response; assay type: cell-based; settings: for HRH4 dose-response raw reporter signal (Fig. 5b source data): replicate wells
T3 construct: expressed in transfected cells; host or cells: HTLA cells (HEK293 line stably expressing β-arrestin-TEV and tTA-Luciferase)
T3 sequence (Q9H3N8 whole entry): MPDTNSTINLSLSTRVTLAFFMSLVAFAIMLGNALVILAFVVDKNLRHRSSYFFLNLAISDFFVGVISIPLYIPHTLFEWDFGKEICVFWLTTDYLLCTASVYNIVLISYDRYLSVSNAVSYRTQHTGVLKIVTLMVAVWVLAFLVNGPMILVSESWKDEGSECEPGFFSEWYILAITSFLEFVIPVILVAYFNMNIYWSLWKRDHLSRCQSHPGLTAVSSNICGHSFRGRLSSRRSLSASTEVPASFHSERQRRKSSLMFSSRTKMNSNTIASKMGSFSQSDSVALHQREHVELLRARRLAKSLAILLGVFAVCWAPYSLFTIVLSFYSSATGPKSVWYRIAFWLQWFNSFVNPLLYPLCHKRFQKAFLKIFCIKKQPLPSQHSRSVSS
Method: as §1

[4] = molecular target: T4, HRH3 (Homo sapiens, UniProt Q9Y5N1); assay: PRESTO-Tango GPCR screen and dose-response; assay type: cell-based; settings: for HRH3 dose-response raw reporter signal (Fig. 5b source data): replicate wells
T4 construct: expressed in transfected cells; host or cells: HTLA cells (HEK293 line stably expressing β-arrestin-TEV and tTA-Luciferase)
T4 sequence (Q9Y5N1 whole entry): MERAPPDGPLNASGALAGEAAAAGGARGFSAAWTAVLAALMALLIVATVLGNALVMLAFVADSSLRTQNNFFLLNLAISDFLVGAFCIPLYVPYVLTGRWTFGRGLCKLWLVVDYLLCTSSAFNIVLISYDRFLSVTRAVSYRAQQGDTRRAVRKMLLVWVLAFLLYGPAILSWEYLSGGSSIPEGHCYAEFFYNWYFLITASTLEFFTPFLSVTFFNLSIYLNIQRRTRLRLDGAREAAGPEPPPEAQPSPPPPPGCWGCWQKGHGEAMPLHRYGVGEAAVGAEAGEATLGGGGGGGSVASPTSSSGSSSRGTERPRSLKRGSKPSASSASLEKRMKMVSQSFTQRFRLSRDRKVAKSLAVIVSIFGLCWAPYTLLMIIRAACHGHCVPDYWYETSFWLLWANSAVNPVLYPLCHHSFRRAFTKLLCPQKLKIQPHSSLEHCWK
Method: as §1

[5] = tested on: ∆pyr K. oxytoca; assay: RNA-seq of compound-supplemented ∆pyr K. oxytoca; assay type: cell-based, Klebsiella oxytoca ATCC 8724; settings: 10 µM
Method: A ∆pyr K. oxytoca glycerol stock was streaked onto an LB-Agar plate supplemented with spectinomycin (50 µg/mL) and incubated aerobically at 30°C for 24 h in a stationary incubator. Single colonies were grown for 24 h aerobically in 5 mL of M9 minimal medium supplemented with 5 g/L casamino acids and 0.4% D-galactose at 30 °C and 250 rpm. Each ∆pyr K. oxytoca overnight culture was diluted 1:1000 into fresh medium (5 mL) and incubated aerobically at 30 °C and 250 rpm to mid-exponential growth (OD600 = 0.8). These conditions abrogated both detectable pyrazine and pyrazinone production. At this point, 10 µM of compound in DMSO, were added to the cultures; an equal volume of DMSO was added to cultures without compound as a solvent vehicle control. The cultures were incubated under aerobic conditions with the compounds for one hour at 30 °C and at 250 rpm. After incubation, the cultures were centrifuged, the supernatants were decanted, and the cell pellets were quickly resuspended in 5 mL of Bacterial RNAProtect (Qiagen). The samples were centrifuged again, and the pellets were frozen on dry ice and stored at −80 °C until RNA extraction. The processed cell pellets were thawed on ice and resuspended in 200 µL of lysis buffer (10 mM Tris, 1 mM EDTA, 5 mg/mL lysozyme, 12.5 µg/mL proteinase K [pH 8.0]) and incubated at room temperature for 10 min. The RNA was extracted via the Qiagen RNeasy Mini kit, treated with TURBO DNase in a total volume of 100 µL at room temperature for 30 min, and extracted again using an RNeasy Mini kit. RNA-seq analysis was conducted by the Yale Center for Genome Analysis. Sequences were aligned to the K. oxytoca ATCC 8724 genome (NC_016612.1). Differential expression analysis was performed through DESeq2 and pathway enrichment analysis was performed through the Funage-Pro web-based platform.

[6] = tested on: leup operon (leupeptin BGC) promoter in K. oxytoca ATCC 8724; assay: GFP-based transcriptional reporter for the leup operon; assay type: cell-based, Klebsiella oxytoca; settings: carbohydrate screen, M9 + casamino acid + 0.4% indicated sugar, 30 °C, 24 h
Text: We previously examined a panel of 84 clinical K. oxytoca isolates (including recently renamed Klebsiella michiganensis isolates) for the presence of either the leup operon or npsB, an NRPS of the tilimycin/tilivalline gene cluster. […] While the roles of tilivalline and tilimycin in hemorrhagic colitis are well studied[8],[9], the operon for leupeptin biosynthesis is “silent” in K. oxytoca under typical laboratory culture conditions (i.e., leupeptin production is undetectable). Therefore, our study commenced by exploring growth conditions required to trigger leupeptin biosynthesis in K. oxytoca. To achieve this, we generated a green fluorescent protein (GFP)-based reporter system to monitor leup transcription in K. oxytoca ATCC 8724 (recently renamed as Klebsiella michiganensis (ATCC 8724), Fig. 1a). We utilized λ-red recombineering techniques[38] to replace the first biosynthetic gene (leupA) of the leupeptin BGC with a GFP-spectinomycin resistance cassette. […] Consequently, conditions that elicit transcription of the leupeptin BGC can be monitored by GFP fluorescence intensity.
5 mL of the leupeptin reporter strain was cultured aerobically in 10 g/L of LB (Becton Dickinson), yeast extract, GAM (HiMedia Laboratories), horse liver extract (HiMedia Laboratories), malt extract (VWR), meat extract (HiMedia Laboratories), YPD (Dot Scienticifc), brain heart infusion (Becton Dickinson), porcine mucin (Sigma-Aldrich, M1778), clostridial (Becton Dickinson), TSB (VWR), or casamino acid supplemented (5 g/L, VWR) M9 minimal salts (MP Biomedicals) at 30 °C for 24 h at 250 rpm. Cultures were lysed via sonication, centrifuged, and 150 µL of the supernatants were aliquoted into black well clear bottom 96 well plates. GFP fluorescence measurements were performed on a BioTek Synergy H1 plate reader with an excitation wavelength of 488 nm and an emission wavelength of 525 nm. For the carbohydrate screen, the leupeptin reporter strain was cultured in M9 minimal medium (MPbio) supplemented with casamino acid (5 g/L, VWR) and 0.4% indicated sugar aerobically at 30 °C for 24 h at 250 rpm.

For Cc1cnc(CCC(=O)O)c(Cc2ccccc2)n1 [compound 7], the “HRH2 dose-response raw reporter signal (Fig. 5b source data)” value (“HRH2 dose-response raw reporter signal” for short) ([1]; Log(10)Conc (M) -4) was 62 and 50 and 47, the “HRH2 dose-response raw reporter signal” value ([1]; Log(10)Conc (M) -5) was 47 and 50 and 83 and the “HRH2 dose-response raw reporter signal” value ([1]; Log(10)Conc (M) -6) was 18 and 53 and 71. The “HRH2 dose-response raw reporter signal” value ([1]; Log(10)Conc (M) -7) was 50 (2×) and 74, the “HRH2 dose-response raw reporter signal” value ([1]; Log(10)Conc (M) -8) was 44 and 35 and 56 and the “HRH2 dose-response raw reporter signal” value ([1]; Log(10)Conc (M) -9) was 97 and 65 and 41. The “HRH2 dose-response raw reporter signal” value ([1]; Log(10)Conc (M) -10) was 56 and 32 and 21, the “HRH2 dose-response raw reporter signal” value ([1]; Log(10)Conc (M) -11) was 18 and 53 and 44 and the “HRH2 dose-response raw reporter signal” value ([1]; Log(10)Conc (M) -12) was 32 and 65 and 68. The “HRH2 dose-response raw reporter signal” value ([1]; Log(10)Conc (M) -13) was 35 and 62 and 97, the “HRH2 dose-response raw reporter signal” value ([1]; Log(10)Conc (M) -14) was 32 and 47 and 68 and the “HRH2 dose-response raw reporter signal” value ([1]; Log(10)Conc (M) -15) was 77 and 53 and 71. The “activity towards HRH2” value ([1]; PRESTO-Tango dose-response) was “no activity”, the “HRH1 dose-response raw reporter signal (Fig. 5b source data)” value (“HRH1 dose-response raw reporter signal” below) ([2]; Log(10)Conc (M) -4) was 51351 and 49812 and 56357 and the “HRH1 dose-response raw reporter signal” value ([2]; Log(10)Conc (M) -5) was 52012 and 52029 and 55110. For the same compound, the “HRH1 dose-response raw reporter signal” value ([2]; Log(10)Conc (M) -6) was 48657 and 55248 and 53819, the “HRH1 dose-response raw reporter signal” value ([2]; Log(10)Conc (M) -7) was 47504 and 53144 and 54812 and the “HRH1 dose-response raw reporter signal” value ([2]; Log(10)Conc (M) -8) was 48011 and 51622 and 55024. For the same compound, the “HRH1 dose-response raw reporter signal” value ([2]; Log(10)Conc (M) -9) was 49795 and 49308 and 52115, the “HRH1 dose-response raw reporter signal” value ([2]; Log(10)Conc (M) -10) was 46794 and 49653 and 52654 and the “HRH1 dose-response raw reporter signal” value ([2]; Log(10)Conc (M) -11) was 47026 and 50225 and 51761. For the same compound, the “HRH1 dose-response raw reporter signal” value ([2]; Log(10)Conc (M) -12) was 51855 and 50992 and 52000, the “HRH1 dose-response raw reporter signal” value ([2]; Log(10)Conc (M) -13) was 49320 and 51552 and 55349 and the “HRH1 dose-response raw reporter signal” value ([2]; Log(10)Conc (M) -14) was 48035 and 52604 and 51817. For the same compound, the “HRH1 dose-response raw reporter signal” value ([2]; Log(10)Conc (M) -15) was 39264 and 44810 and 48161, the “activity towards HRH1” value ([2]; PRESTO-Tango dose-response) was “no activity” and the “HRH4 dose-response raw reporter signal (Fig. 5b source data)” value (shortened to “HRH4 dose-response raw reporter signal”) ([3]; Log(10)Conc (M) -5) was 245 and 339. For the same compound, the “HRH4 dose-response raw reporter signal” value ([3]; Log(10)Conc (M) -6) was 295 and 333, the “HRH4 dose-response raw reporter signal” value ([3]; Log(10)Conc (M) -7) was 242 and 304 and the “HRH4 dose-response raw reporter signal” value ([3]; Log(10)Conc (M) -8) was 271 and 336. For the same compound, the “HRH4 dose-response raw reporter signal” value ([3]; Log(10)Conc (M) -9) was 425 and 324, the “HRH4 dose-response raw reporter signal” value ([3]; Log(10)Conc (M) -10) was 307 and 401 and the “HRH4 dose-response raw reporter signal” value ([3]; Log(10)Conc (M) -11) was 312 and 366. The “HRH4 dose-response raw reporter signal” value ([3]; Log(10)Conc (M) -12) was 242 and 292, the “HRH4 dose-response raw reporter signal” value ([3]; Log(10)Conc (M) -13) was 256 and 383 and the “HRH4 dose-response raw reporter signal” value ([3]; Log(10)Conc (M) -14) was 271 and 304. For the same compound, the “HRH4 dose-response raw reporter signal” value ([3]; Log(10)Conc (M) -15) was 286 and 230, the “activity towards HRH4” value ([3]; PRESTO-Tango dose-response) was “no activity” and the “HRH3 dose-response raw reporter signal (Fig. 5b source data)” value (“HRH3 dose-response raw reporter signal” below) ([4]; Log(10)Conc (M) -4) was 106 and 112 and 159. For the same compound, the “HRH3 dose-response raw reporter signal” value ([4]; Log(10)Conc (M) -5) was 124 and 133 and 80, the “HRH3 dose-response raw reporter signal” value ([4]; Log(10)Conc (M) -6) was 56 and 106 and 124 and the “HRH3 dose-response raw reporter signal” value ([4]; Log(10)Conc (M) -7) was 83 and 106 and 180. The “HRH3 dose-response raw reporter signal” value ([4]; Log(10)Conc (M) -8) was 112 and 142 and 106, the “HRH3 dose-response raw reporter signal” value ([4]; Log(10)Conc (M) -9) was 97 and 112 and 139 and the “HRH3 dose-response raw reporter signal” value ([4]; Log(10)Conc (M) -10) was 139 and 97 and 159. For the same compound, the “HRH3 dose-response raw reporter signal” value ([4]; Log(10)Conc (M) -11) was 91 and 139 and 136, the “HRH3 dose-response raw reporter signal” value ([4]; Log(10)Conc (M) -12) was 118 and 124 and 203 and the “HRH3 dose-response raw reporter signal” value ([4]; Log(10)Conc (M) -13) was 59 and 109 and 130. For the same compound, the “HRH3 dose-response raw reporter signal” value ([4]; Log(10)Conc (M) -14) was 85 and 142 and 124, the “HRH3 dose-response raw reporter signal” value ([4]; Log(10)Conc (M) -15) was 53 and 91 and 112 and the “activity towards HRH3” value ([4]; PRESTO-Tango dose-response) was “no activity”. The “number of differentially regulated genes” value ([5]; one hour, vs DMSO, Padj < 0.05, abs(log2FC) > 1) was 644 genes, the “effect on enterobactin BGC transcription” value ([5]; vs DMSO control, RNA-seq) was “significantly enhanced transcription of the enterobactin BGC” and the “KEGG pathway enrichment neglogP: Citrate cycle, downregulated” value ([5]; Funage-Pro, 7 downreg) was 3.041. For the same compound, the “KEGG pathway enrichment neglogP: Glycerolipid metabolism, downregulated” value ([5]; Funage-Pro, 7 downreg) was 4.481, the “KEGG pathway enrichment neglogP: Nitrogen metabolism, downregulated” value ([5]; Funage-Pro, 7 downreg) was 3.06 and the “KEGG pathway enrichment neglogP: ABC Transporters, upregulated” value ([5]; Funage-Pro, 7 upreg) was 4.602. For the same compound, the “KEGG pathway enrichment neglogP: Biosynthesis of siderophore group nonribosomal peptides, upregulated” value ([5]; Funage-Pro, 7 upreg) was 5.301, the “KEGG pathway enrichment neglogP: Oxidative phosphorylation, upregulated” value ([5]; Funage-Pro, 7 upreg) was 3.252 and the “KEGG pathway enrichment neglogP: Phenylalanine Metabolism, upregulated” value ([5]; Funage-Pro, 7 upreg) was 4.301. The “effect on cytochrome-related operons transcription” value ([5]; RNA-seq, pyrazine 7 compared with pyrazinone 3) was “prominently upregulated”.

For O=C(CO)[C@@H](O)[C@H](O)[C@H](O)CO [Fructose], the “GFP fluorescence, GFP Strain + Media” value ([6]; leup GFP reporter strain) was 9618 RFU and the “GFP fluorescence, WT + Media” value ([6]; wildtype K. oxytoca without reporter (background)) was 6828 RFU.
